pIC50: −log10 of the molar value. Active and inactive are the calls of the source. No cut-off for these calls is given here.
Columns and labels:
[1] = system: HCT-116; experiment: Induction of apoptosis in human HCT-116 cells assessed as necrotic cells at 1.5 uM incubated for 24 hrs by annexin V-FITC/7-AAD staining based flow cytometry analysis (reference value: 2.46%); format: functional
[2] = Cytotoxicity against HEK293 cells assessed as inhibition of cell growth incubated 1.5 hrs by MTT assay; format: toxicity, cell-based; details: human
[3] = system: HCT-116; experiment: Inhibition of cell migration in human HCT-116 cells measured for 24 hrs by scratch wound healing assay; format: functional, cell-based; details: dose 0.5-5 µM
[4] = system: SW480; experiment: Growth inhibition of human SW480 cells incubated for 1.5 hrs by MTT assay; format: functional, cell-based
[5] = system: HCT-116; experiment: Induction of cell cycle arrest in human HCT-116 cells assessed as accumulation of cells at G1 phase at 6 uM incubated for 24 hrs by flow cytometry analysis (reference value: 68.74%); format: functional
[6] = system: HCT-116; experiment: Inhibition of colony formation in human HCT-116 cells incubated for 48 hrs by crystal violet staining based analysis; format: functional, cell-based; details: dose 0.1-2 µM
[7] = target: T1, Tubulin (Bos taurus) (UniProt Q6B856+Q862L2+Q862F3); experiment: Inhibition of bovine brain tubulin polymerization at 12 uM measured at 2 to 20 mins by spectrophotometer analysis relative to control; details: time 2-20 min
[8] = system: HCT-116; experiment: Induction of apoptosis in human HCT-116 cells assessed as viable cells at 6 uM incubated for 24 hrs by annexin V-FITC/7-AAD staining based flow cytometry analysis (reference value: 90.19%); format: functional; details: read-out: Activity
[9] = system: HCT-116; experiment: Induction of apoptosis in human HCT-116 cells assessed as early apoptotic cells at 6 uM incubated for 24 hrs by annexin V-FITC/7-AAD staining based flow cytometry analysis (reference value: 5.82%); format: functional
[10] = system: HCT-116; experiment: Induction of apoptosis in human HCT-116 cells assessed as late apoptotic cells at 3 uM incubated for 24 hrs by annexin V-FITC/7-AAD staining based flow cytometry analysis (reference value: 1.53%); format: functional
[11] = system: HCT-116; experiment: Induction of cell cycle arrest in human HCT-116 cells assessed as accumulation of cells at G2 phase at 3 uM incubated for 24 hrs by flow cytometry analysis (reference value: 18.25%); format: functional
[12] = system: CT26; experiment: Growth inhibition of CT26 cells incubated for 1.5 hrs by MTT assay; format: functional, cell-based; details: Mus musculus, CT26, 1.5 h
[13] = system: HCT-116; experiment: Induction of apoptosis in human HCT-116 cells assessed as viable cells at 3 uM incubated for 24 hrs by annexin V-FITC/7-AAD staining based flow cytometry analysis (reference value: 90.19%); format: functional; details: read-out: Activity
[14] = system: HCT-116; experiment: Induction of apoptosis in human HCT-116 cells assessed as necrotic cells at 3 uM incubated for 24 hrs by annexin V-FITC/7-AAD staining based flow cytometry analysis (reference value: 2.46%); format: functional
[15] = system: HCT-116; experiment: Induction of cell cycle arrest in human HCT-116 cells assessed as accumulation of cells at G2 phase at 6 uM incubated for 24 hrs by flow cytometry analysis (reference value: 18.25%); format: functional
[16] = system: HCT-116; experiment: Inhibition of cell migration in human HCT-116 cells at 5 uM measured for 24 hrs by scratch wound healing assay; format: functional
[17] = system: HCT-116; experiment: Induction of cell cycle arrest in human HCT-116 cells assessed as accumulation of cells at G2/M phase at 1.5 uM incubated for 24 hrs by flow cytometry analysis (reference value: 18.25%); format: functional
[18] = target: Tubulin beta (Homo sapiens) (UniProt P68371+Q9H4B7+Q13509+P04350+Q3ZCM7+P07437+Q13885+Q9BVA1+Q9BUF5+A6NNZ2); experiment: Binding affinity to beta-tubulin colchicine binding site in human HCT-116 cells assessed as inhibition of EBI-beta-tubulin adduct band formation at 1 to 25 uM preincubated for 2 hrs followed by EBI addition measured after 1.5 hrs by EBI competition based Western blotting analysis; format: cell-based; details: dose 1-25 µM, time 3.5 hrs
[19] = system: HCT-116; experiment: Induction of cell cycle arrest in human HCT-116 cells assessed as accumulation of cells at G1 phase at 1.5 uM incubated for 24 hrs by flow cytometry analysis (reference value: 68.74%); format: functional
[20] = system: HCT-116; experiment: Induction of cell cycle arrest in human HCT-116 cells assessed as accumulation of cells at S phase at 6 uM incubated for 24 hrs by flow cytometry analysis (reference value: 3.61%); format: functional
[21] = system: HCT-116; experiment: Antiproliferative activity against human HCT-116 cells assessed as inhibition of cell growth at 2 uM incubated for 2 weeks by […]; format: functional, cell-based
[22] = system: HeLa; experiment: Growth inhibition of human HeLa cells incubated for 1.5 hrs by MTT assay; format: functional, cell-based
[23] = system: HCT-116; experiment: Induction of cell cycle arrest in human HCT-116 cells assessed as accumulation of cells at G2 phase at 1.5 uM incubated for 24 hrs by flow cytometry analysis (reference value: 18.25%); format: functional
[24] = target: Voltage-gated inwardly rectifying potassium channel KCNH2 (Homo sapiens, UniProt Q12809); experiment: Inhibition of hERG expressed in CHO cells at 40 uM by automated patch clamp analysis; format: toxicity, cell-based
[25] = system: HCT-116; experiment: Inhibition of colony formation in human HCT-116 cells at 0.1 uM incubated for 48 hrs by crystal violet staining based analysis; format: functional; details: HCT-116, 48 h, values are per cent of control
[26] = system: HCT-116; experiment: Growth inhibition of human HCT-116 cells incubated for 1.5 hrs by MTT assay; format: functional, cell-based; details: HCT-116, 1.5 h
[27] = system: HCT-116; experiment: Induction of apoptosis in human HCT-116 cells assessed as necrotic cells at 6 uM incubated for 24 hrs by annexin V-FITC/7-AAD staining based flow cytometry analysis (reference value: 2.46%); format: functional
[28] = system: A2780; experiment: Growth inhibition of human A2780 cells incubated for 1.5 hrs by MTT assay; format: functional, cell-based; details: A2780, 1.5 h
[29] = system: HCT-116; experiment: Induction of apoptosis in human HCT-116 cells assessed as early apoptotic cells at 3 uM incubated for 24 hrs by annexin V-FITC/7-AAD staining based flow cytometry analysis (reference value: 5.82%); format: functional
[30] = target: T1, Tubulin (Bos taurus); experiment: (§1) Inhibition of bovine brain tubulin polymerization measured at 2 to 20 mins by spectrophotometer analysis; details: time 2-20 min
[31] = target: Tubulin (Bos taurus, UniProt Q6B856+Q862L2+Q862F3); experiment: as §1
[32] = Cytotoxicity against human HUVEC cells assessed as inhibition of cell growth incubated 1.5 hrs by MTT assay; format: toxicity, cell-based
[33] = Potency index, ratio of test compound IC50 to colchicine IC50 for cytotoxicity against human HUVEC cells assessed as inhibition of cell growth incubated 1.5 hrs by MTT assay; format: toxicity, cell-based; details: read-out: Ratio IC50
[34] = system: HCT-116; experiment: Induction of cell cycle arrest in human HCT-116 cells assessed as accumulation of cells at G2/M phase at 6 uM incubated for 24 hrs by flow cytometry analysis (reference value: 18.25%); format: functional
[35] = Potency index, ratio of test compound IC50 to 5-fluorouracil IC50 for cytotoxicity against human HUVEC cells assessed as inhibition of cell growth incubated 1.5 hrs by MTT assay; format: toxicity, cell-based; details: read-out: Ratio IC50
[36] = system: HCT-116; experiment: Inhibition of colony formation in human HCT-116 cells at 0.5 uM incubated for 48 hrs by crystal violet staining based analysis; format: functional; details: HCT-116, 48 h, values are per cent of control
[37] = target: T1, Tubulin (Bos taurus); experiment: Inhibition of bovine brain tubulin polymerization at 6 uM measured at 2 to 20 mins by spectrophotometer analysis relative to control; details: time 2-20 min

Chain of Voltage-gated inwardly rectifying potassium channel KCNH2 (Q12809 whole entry): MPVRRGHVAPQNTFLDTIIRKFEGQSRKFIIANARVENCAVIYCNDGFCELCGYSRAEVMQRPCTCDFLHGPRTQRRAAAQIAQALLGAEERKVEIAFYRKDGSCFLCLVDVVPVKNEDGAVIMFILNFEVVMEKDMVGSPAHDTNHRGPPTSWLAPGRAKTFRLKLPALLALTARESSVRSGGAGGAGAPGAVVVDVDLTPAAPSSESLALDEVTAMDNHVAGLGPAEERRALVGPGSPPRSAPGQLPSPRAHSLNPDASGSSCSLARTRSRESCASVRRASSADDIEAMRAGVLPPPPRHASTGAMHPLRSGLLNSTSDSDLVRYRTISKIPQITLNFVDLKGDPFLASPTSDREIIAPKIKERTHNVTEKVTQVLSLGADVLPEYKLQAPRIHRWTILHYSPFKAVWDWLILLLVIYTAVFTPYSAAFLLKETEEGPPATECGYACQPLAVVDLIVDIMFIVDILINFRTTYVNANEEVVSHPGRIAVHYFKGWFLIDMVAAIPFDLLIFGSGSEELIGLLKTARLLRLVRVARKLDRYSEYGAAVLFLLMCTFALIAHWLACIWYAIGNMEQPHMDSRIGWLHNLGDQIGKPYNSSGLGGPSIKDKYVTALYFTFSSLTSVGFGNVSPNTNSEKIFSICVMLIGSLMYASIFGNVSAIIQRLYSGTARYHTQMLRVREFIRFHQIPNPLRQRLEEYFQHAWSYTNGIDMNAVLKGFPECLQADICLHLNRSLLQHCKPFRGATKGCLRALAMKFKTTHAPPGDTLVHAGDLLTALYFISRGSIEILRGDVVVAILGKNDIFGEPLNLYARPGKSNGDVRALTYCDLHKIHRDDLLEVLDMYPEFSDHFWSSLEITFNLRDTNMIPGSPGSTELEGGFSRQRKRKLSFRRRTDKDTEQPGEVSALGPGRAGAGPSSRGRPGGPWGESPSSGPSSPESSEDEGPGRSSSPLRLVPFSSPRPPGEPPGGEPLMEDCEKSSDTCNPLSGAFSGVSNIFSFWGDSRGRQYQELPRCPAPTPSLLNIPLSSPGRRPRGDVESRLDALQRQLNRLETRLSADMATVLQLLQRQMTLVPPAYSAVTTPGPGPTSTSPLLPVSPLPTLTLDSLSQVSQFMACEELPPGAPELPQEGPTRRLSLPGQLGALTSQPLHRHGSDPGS

pIC50 [4]: 5.88
inhibition [7]: 66%
pIC50 [12]: 5.39
Activity [18]: Active
pIC50 [22]: 6.42
pIC50 [26]: 6.59
pIC50 [28]: 6.23
inhibition [30]: Dose-Dependent Effect
IC50 [31]: 6100 nM
inhibition [37]: 54%
SMILES: CCOc1ccc([C@H]2CC(=O)c3cc(OC)c(OC)c(OC)c32)cc1F
Activity [1]: 2.28%
IC50 at 1.5 h [2]: 7450 nM
inhibition [3]: Dose-Dependent Effect
Activity [5]: 35.2%
inhibition [6]: Dose-Dependent Effect
viability at 6 µM [8]: 60.5%
Activity [9]: 21.2%
Activity [10]: 5.07%
Activity [11]: 28.73%
viability at 3 µM [13]: 73%
Activity [14]: 3.2%
Activity [15]: 47.34%
inhibition at 5 µM [16]: 80%
Activity [17]: 24.41%
Activity [19]: 65.69%
Activity [20]: 5.1%
Activity [21]: Active
Activity [23]: 24.4%
pIC50 [24]: < 4.40
growth, % of control at 0.1 µM [25]: 57.9%
Activity [27]: 4.48%
Activity [29]: 18.75%
IC50 at 1.5 h [32]: 15000 nM
selectivity ratio at 1.5 h [33]: 35
Activity [34]: 47.34%
selectivity ratio at 1.5 h [35]: 1.6
growth, % of control at 0.5 µM [36]: 30.8%

Reference: ChEMBL document CHEMBL5329222, “Discovery of novel tubulin CBSI (R)-9k from the indanone scaffold for the treatment of colorectal cancer” (RSC Med Chem, 2023)
